Data taken from patent US12419305B2, “Antimicrobial compositions” (Firmenich SA, priority 2018, dated 2025).
Like-named read-outs stand apart in the source and are kept apart here.

Experiments:
C. xerosis ATCC 373 = assay: BCT test (bacterial contact time), 120 s, log reduction / effect fraction; CI by Compusyn; type: cell-based; conditions: Corynebacterium xerosis, ATCC373, 2 min, contact 120 s, 25% EtOH; for log reduction at 0.25 % strength: dose 0.25% w/v; for log reduction at 0.3 % strength: dose 0.3% w/v
Procedure: C. xerosis: Suspensions of the C. xerosis ATCC 373 strain were prepared as follows: Stock cultures (stored at −80° C.) were thawed and subcultured onto Tryptic Soy Agar media with Tween 80 (TSA-TW80), and incubated at 37° C. for 48 h. The primary cultures were subcultured onto TSA-TW80 again, to prepare the secondary cultures. Single colonies of the secondary cultures were selected and used to inoculate 30 ml brain heart infusion broth with Tween 80 (BHI-TW80). The inoculated broth was incubated at 37° C. at 180 rpm for 24 h. Aliquots (1 ml) of the 24 h culture were inoculated into 30 ml of fresh BHI-TW80 broth media, and incubated at 37° C. at 180 rpm for 48 h. Aliquots (2-3 ml) of the 48 h culture were inoculated into four 50 ml of fresh BHI-TW80 broth media, and incubated at 37° C. 180 rpm for 4-6 hrs. When the OD 600 nm reached the target value of 1.6, cells were harvested by centrifugation at 5000 rpm for 10 min, and then resuspended in the same fresh BHI-TW80 at a concentration of 10^9 to 10^10 cfu/mL. This suspension was used as the bacterial suspension for the BCT test.
(§1) BCT Test: Test compositions at a range of concentrations (either combinations of more than one perfume ingredient, and comparative compositions comprising the single perfume ingredients) were prepared in ethanol. Five replicates of each test composition were added into 96-well microtiter plates (120 μl per well), with row B containing control compositions containing the ethanol solution alone. 120 μl of bacterial cell suspensions at a concentration of approximately 1×10^8 bacteria per mL (as prepared above) were added to each well of the microtiter plate. The bacterial suspensions were incubated with the test solutions for 45, 60, or 120 seconds. Following the incubation of the bacterial suspensions with the test solutions, serial dilutions of the bacterial suspensions were generated (three serial 1:10 dilutions, followed by 17 serial 1:2 dilutions), in multiwell microtiter plates.
(§2) Each plate was sealed and incubated at 37° C. under agitation (180 rpm). After incubation, the turbidity of the wells (OD600 nm) was determined using a Tecan microplate reader. Turbid wells were regarded as positive growth, due to the presence of viable cells. The total number of viable cells (log CFU) for each sample was calculated. And the log reduction for each test composition at the final concentration (dose) was calculated against the control sample of the ethanol solution.
(§3) Determination of Synergy via the Combination Index (CI): The CI was calculated using Compusyn software (ComboSyn, Inc., as created by Dr. Dorothy Chou in 2005), according to the manufacturer's instructions. The concentration of each test composition (combinations of more than one perfume ingredient, and comparative compositions comprising the single perfume ingredients used to generate the combination) and their corresponding effect fraction was entered, and the corresponding CI calculated.
(§4) When the calculated CI values were less than 0.9, the combination of perfume ingredients was regarded as having synergistic effect. When the calculated CI was between 1.0 a 0.9, the combination of perfume ingredients was regarded as having an additive effect. When the calculated CI was greater than 1.0, the combination of perfume ingredients was regarded as having an antagonistic effect.

E. coli ATCC 10536 = assay: BCT test (bacterial contact time), 45 s, log reduction / effect fraction; CI by Compusyn; type: cell-based, Escherichia coli
Procedure: E. coli, S. aureus, P. aeruginosa, and S. enterica: Separate suspensions of the E. coli ATCC 10536 strain, S. aureus ATCC 6538 strain, Pseudomonas aeruginosa ATCC 15442 strain, and the Salmonella enterica ATCC 10708 strain were prepared as follows: Stock cultures (stored at −80° C.) were thawed and sub-cultured onto Tryptic Soy Agar (TSA) agar plate media, and incubated at 37° C. for 24 h to obtain single colonies. Single colonies of the primary cultures were streaked onto TSA plates and incubated at 37° for 24 h to generate secondary cultures. Single colonies of secondary cultures picked and used to inoculate into 50 mL of TSB broth. The inoculated TSB broth was incubated at 37° C. at 180 rpm for 18 h. Aliquots (0.5 ml) of the 18 h culture were inoculated into 50 ml of fresh TSB broth, and incubated at 37° C. at 180 rpm for 2-3 hours. When the OD600 nm value of the broth reached 1-2, cells were harvested by centrifugation at 5000 rpm for 10 min, and then resuspended in fresh TSB broth at a concentration of 1-5×10^8 CFU/mL. These suspensions were used as the bacterial suspensions for the BCT test.
as §1, §2, §3, §4

S. aureus ATCC 6538 = assay: BCT test (bacterial contact time), 60 s, log reduction / effect fraction; CI by Compusyn; type: cell-based, Staphylococcus aureus; conditions: Staphylococcus aureus, ATCC6538, 1 min, 60 s, in 25% EtOH; for log reduction at 0.1 % strength: dose 0.100 % w/v; for log reduction at 0.2 % strength: dose 0.200 % w/v
In short: (§5)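 Perfume ingredients, alone or combined, in ethanol were mixed 1:1 with ~1×10^8 CFU/mL log-phase bacteria in TSB for the stated contact time. Survivors were estimated by serial dilution and OD600 growth at 37 °C; log reduction versus ethanol control. CI from effect fractions via Compusyn (<0.9 synergy, >1.0 antagonism).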

[1] = test system: Pseudomonas aeruginosa ATCC 15442; assay: as above; type: cell-based; conditions: Pseudomonas aeruginosa, ATCC15442, 1 min, BCT 60 s, in 25% EtOH
In short: as §5

[2] = test system: Salmonella enterica ATCC 10708; assay: as above; type: cell-based; conditions: Salmonella enterica, ATCC10708, 1 min, BCT 60 s, in 25% EtOH; for log reduction at 0.05 % strength: Dose 0.05 % w/v; for log reduction at 0.06 % strength: Dose 0.06 % w/v
In short: as §5

[3] = Escherichia coli, ATCC10536, 45 s, dose 0.05% w/v, contact 45 s, 20% EtOH
[4] = Escherichia coli, ATCC10536, 45 s, dose 0.07% w/v, contact 45 s, 20% EtOH
[5] = Escherichia coli, ATCC10536, 45 s, dose 0.09% w/v, contact 45 s, 20% EtOH

CCCCCCC1CCC(=O)O1 (centres unmarked) [Decal] gave a log reduction at 0.1 % strength (C. xerosis ATCC 373; dose 0.1% w/v) of 0.1, a log reduction at 0.15 % strength (C. xerosis ATCC 373; dose 0.15% w/v) of 2.2 and a log reduction at 0.2 % strength (C. xerosis ATCC 373; dose 0.2% w/v, read-out: Log reduction) of 4.6. For the same molecule, the log reduction at 0.25 % strength (C. xerosis ATCC 373; read-out: Log reduction) was 5.4, the log reduction at 0.3 % strength (C. xerosis ATCC 373; read-out: Log reduction) was 6.1 and the log reduction at 0.05 % strength (E. coli ATCC 10536; Escherichia coli, ATCC10536, 45 s, dose 0.050 % w/v, 45 s, in 20% EtOH) was 0.1. The log reduction at 0.05 % strength (E. coli ATCC 10536; [3]) was 0, the log reduction at 0.06 % strength (E. coli ATCC 10536; Escherichia coli, ATCC10536, 45 s, dose 0.060 % w/v, 45 s, in 20% EtOH) was 0.7 and the log reduction at 0.06 % strength (E. coli ATCC 10536; Escherichia coli, ATCC10536, 45 s, dose 0.06% w/v, contact 45 s, 20% EtOH) was 0.9. For the same molecule, the log reduction at 0.07 % strength (E. coli ATCC 10536; Escherichia coli, ATCC10536, 45 s, dose 0.070 % w/v, 45 s, in 20% EtOH) was 2.4, the log reduction at 0.07 % strength (E. coli ATCC 10536; [4]) was 2.8 and the log reduction at 0.08 % strength (E. coli ATCC 10536; Escherichia coli, ATCC10536, 45 s, dose 0.080 % w/v, 45 s, in 20% EtOH) was 6.4. The log reduction at 0.08 % strength (E. coli ATCC 10536; Escherichia coli, ATCC10536, 45 s, dose 0.08% w/v, contact 45 s, 20% EtOH) was 6.1, the log reduction at 0.09 % strength (E. coli ATCC 10536; Escherichia coli, ATCC10536, 45 s, dose 0.090 % w/v, 45 s, in 20% EtOH) was 7.1 and the log reduction at 0.09 % strength (E. coli ATCC 10536; [5]) was 7.3. The Log reduction (E. coli ATCC 10536; dose 0.050 % w/v, 45 s, in 20% EtOH) was 0.1, the log reduction at 0.08 % strength (S. aureus ATCC 6538; dose 0.080 % w/v) was 2.4 and the log reduction at 0.1 % strength (S. aureus ATCC 6538) was 5. The log reduction at 0.12 % strength (S. aureus ATCC 6538; dose 0.120 % w/v) was 6.6, the log reduction at 0.16 % strength (S. aureus ATCC 6538; dose 0.160 % w/v) was 7.2 and the log reduction at 0.2 % strength (S. aureus ATCC 6538; read-out: Log reduction) was 7. It also gave a log reduction at 0.05 % strength ([1]; Dose 0.05 % w/v) of 1.3, a log reduction at 0.055 % strength ([1]; Dose 0.055 % w/v) of 2.7 and a log reduction at 0.06 % strength ([1]; Dose 0.06 % w/v) of 2.8. It also gave a log reduction at 0.065 % strength ([1]; Dose 0.065 % w/v) of 4.7, a log reduction at 0.07 % strength ([1]; Dose 0.07 % w/v) of 5.2 and a log reduction at 0.04 % strength ([2]; Dose 0.04 % w/v) of 0.3. The log reduction at 0.05 % strength ([2]; read-out: Log reduction) was 0.7, the log reduction at 0.06 % strength [2] was 1.3 and the log reduction at 0.07 % strength ([2]; Dose 0.07 % w/v) was 2.2. It also gave a log reduction at 0.08 % strength ([2]; Dose 0.080 % w/v) of 5.8.

In the case of C/C=C/c1ccc(O)c(OC)c1 [Isoeugenol, 2-Methoxy-4-(prop-1-en-1-yl)phenol], the log reduction at 0.25 % strength (C. xerosis ATCC 373; read-out: Log reduction) is reported as 2.4, the log reduction at 0.3 % strength (C. xerosis ATCC 373; read-out: Log reduction) is reported as 3.4 and the log reduction at 0.4 % strength (C. xerosis ATCC 373; dose 0.4% w/v, read-out: Log reduction) is reported as 5. It also gave a log reduction at 0.5 % strength (C. xerosis ATCC 373; dose 0.5% w/v) of 6.3, a log reduction at 0.6 % strength (C. xerosis ATCC 373; dose 0.6% w/v) of 6.6 and a log reduction at 0.05 % strength (E. coli ATCC 10536; [3]) of 0.1. It also gave a log reduction at 0.07 % strength (E. coli ATCC 10536; [4]) of 0.8, a log reduction at 0.09 % strength (E. coli ATCC 10536; [5]) of 2.9 and a log reduction at 0.1 % strength (E. coli ATCC 10536; Escherichia coli, ATCC10536, 45 s, dose 0.1% w/v, contact 45 s, 20% EtOH, read-out: Log reduction) of 4.9. The log reduction at 0.12 % strength (E. coli ATCC 10536; Escherichia coli, ATCC10536, 45 s, dose 0.12% w/v, contact 45 s, 20% EtOH, read-out: Log reduction) was 7.4, the log reduction at 0.1 % strength (S. aureus ATCC 6538) was 1.1 and the log reduction at 0.125 % strength (S. aureus ATCC 6538; dose 0.125 % w/v) was 3.7. It also gave a log reduction at 0.15 % strength (S. aureus ATCC 6538; dose 0.150 % w/v, read-out: Log reduction) of 5.6, a log reduction at 0.2 % strength (S. aureus ATCC 6538; read-out: Log reduction) of 7.5 and a log reduction at 0.125 % strength ([1]; Dose 0.125 % w/v) of 7.5. The log reduction at 0.15 % strength ([1]; Dose 0.15 % w/v) was 7.5, the log reduction at 0.05 % strength ([2]; read-out: Log reduction) was -0.1 and the log reduction at 0.06 % strength [2] was 0. For the same molecule, the log reduction at 0.075 % strength ([2]; Dose 0.075 % w/v) was 4, the log reduction at 0.08 % strength ([2]; Dose 0.08 % w/v) was 4 and the log reduction at 0.08 % strength ([2]; Dose 0.080 % w/v) was 0.8. For the same molecule, the log reduction at 0.1 % strength ([2]; Dose 0.1 % w/v, read-out: Log reduction) was 2.6, the log reduction at 0.1 % strength ([2]; Dose 0.10 % w/v, read-out: Log reduction) was 6.9 and the log reduction at 0.11 % strength ([2]; Dose 0.110 % w/v) was 7.5. For the same molecule, the log reduction at 0.12 % strength ([2]; Dose 0.120 % w/v, read-out: Log reduction) was 7.2.
